Experimental data as given in ChEMBL document CHEMBL5321200, “Discovery of the GSH responsive "Y-PROTACs" targeting ALK and CDK4/6 as a potential treatment for cancer” (Eur J Med Chem, 2023).
Activity calls are given as the source filed them. No cut-off for these calls is given here.

Key:
[1] = biological target: T1, Protein cereblon/Cyclin-dependent kinase 4 (Homo sapiens, UniProt P11802+Q96SW2); assay: PROTAC activity at CRBN/CDK4 in human L02 cells assessed as reduction in CDK4 protein level at 1 to 20 uM incubated for 24 hrs by Western blot analysis; assay type: cell-based; details: dose 1-20 µM
Target sequence in this assay (P11802 2-303 limits assumed): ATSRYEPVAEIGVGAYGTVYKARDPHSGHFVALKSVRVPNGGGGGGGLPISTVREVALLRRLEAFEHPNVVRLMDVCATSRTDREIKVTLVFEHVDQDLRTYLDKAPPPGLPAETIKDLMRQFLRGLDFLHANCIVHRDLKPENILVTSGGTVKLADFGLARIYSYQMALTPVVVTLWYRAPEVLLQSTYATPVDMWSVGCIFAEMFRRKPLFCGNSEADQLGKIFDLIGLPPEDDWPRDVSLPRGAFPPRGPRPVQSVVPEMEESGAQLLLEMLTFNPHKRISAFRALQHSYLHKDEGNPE
Target sequence in this assay (Q96SW2 whole entry partner): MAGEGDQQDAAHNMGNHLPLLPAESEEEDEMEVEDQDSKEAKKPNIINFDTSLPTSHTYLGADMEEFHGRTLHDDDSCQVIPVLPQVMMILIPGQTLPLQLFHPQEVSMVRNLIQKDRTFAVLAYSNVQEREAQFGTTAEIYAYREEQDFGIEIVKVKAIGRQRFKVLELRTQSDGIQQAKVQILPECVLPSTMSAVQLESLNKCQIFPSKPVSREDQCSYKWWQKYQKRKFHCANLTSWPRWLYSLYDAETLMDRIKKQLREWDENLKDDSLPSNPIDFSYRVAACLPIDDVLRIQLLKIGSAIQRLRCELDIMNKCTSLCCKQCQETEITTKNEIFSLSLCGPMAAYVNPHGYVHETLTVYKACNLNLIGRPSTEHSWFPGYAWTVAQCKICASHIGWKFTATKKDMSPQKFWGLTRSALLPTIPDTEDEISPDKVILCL

[2] = system: NCI-H3122; assay: Cell cycle arrest in human NCI-H3122 cells assessed as accumulation of cells at S phase at 2.5 uM incubated for 24 hrs by propidium iodide staining based flow cytometric analysis (reference value: 29.94%); assay type: functional
[3] = system: NCI-H3122; assay: Antitumor activity against human NCI-H3122 cells xenografted in BALB/c nude mouse assessed as reduction in tumor volume at 75 mg/kg, IG administered once daily for 18 days and measured after 12 hrs of last dose; assay type: functional, organism-based; details: time 444.0 hrs
[4] = system: NCI-H3122; assay: Cell cycle arrest in human NCI-H3122 cells assessed as accumulation of cells at S phase at 1.25 uM incubated for 24 hrs by propidium iodide staining based flow cytometric analysis (reference value: 29.94%); assay type: functional
[5] = biological target: T1, Protein cereblon/Cyclin-dependent kinase 4; assay: PROTAC activity at CRBN/CDK4 in human NCI-H3122 cells assessed as reduction in CDK4 protein level incubated for 24 hrs by Western blot analysis; assay type: cell-based
Target sequence in this assay (P11802 whole entry): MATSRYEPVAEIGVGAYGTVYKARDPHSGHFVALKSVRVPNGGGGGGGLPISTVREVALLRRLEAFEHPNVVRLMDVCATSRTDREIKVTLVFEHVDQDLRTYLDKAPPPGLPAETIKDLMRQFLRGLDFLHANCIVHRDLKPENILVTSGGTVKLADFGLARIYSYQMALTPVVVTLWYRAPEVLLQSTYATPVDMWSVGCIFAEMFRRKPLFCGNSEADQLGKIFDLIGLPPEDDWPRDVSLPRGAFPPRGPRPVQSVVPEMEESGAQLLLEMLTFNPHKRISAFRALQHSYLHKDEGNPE
Target sequence in this assay (Q96SW2 whole entry): as the sequence (Q96SW2 whole entry partner) above

[6] = system: NCI-H3122; assay: Induction of apoptosis in human NCI-H3122 cells assessed as necrotic cells at 2.5 uM incubated for 48 hrs by Annexin V-FITC/propidium iodide staining based flow cytometric analysis (reference value: 0.57%); assay type: functional
[7] = Toxicity in BALB/c nude mouse xenografted with human NCI-H3122 cells assessed as effect on visceral lung morphology at 75 mg/kg, IG administered once daily for 18 days and measured after 12 hrs of last dose by H and E staining based analysis; assay type: organism-based; details: in vivo, po, 444 h

Activity [1]: inactive | EC50 [5]: 3.69 µM
Structure (SMILES): CC(=O)c1c(C)c2cnc(Nc3ccc(N4CCN(CC(=O)NCCSSCCN(CC(=O)NCCNc5cccc6c5C(=O)N(C5CCC(=O)NC5=O)C6=O)C(=O)CCCCCCC(=O)N5CCC(c6cc(OC(C)C)c(Nc7ncc(Cl)c(Nc8ccccc8S(=O)(=O)C(C)C)n7)cc6C)CC5)CC4)cn3)nc2n(C2CCCC2)c1=O (configuration not stated)
Activity [2]: 6.04% | Activity [3]: Active | Activity [4]: 10.58% | Activity [6]: 1.01% | Activity [7]: Non-Toxic
